These results are taken from patent publication US5068465A, “Pharmaceutically active 3-aryl-2-fluoro-1-olefins” (Merrell Dow Pharmaceuticals Inc., priority 1990, dated 1991).

One assay has as its system monoamine oxidase. To be noted: J. Med. Chem., 27, 9 (1984); cited from earlier work.
The test system of a further assay is DBH. To be noted: J. Biol. Chem., 259, No. 11, 6925 (1984); cited from earlier work.
Assay [1] relates to dopamine beta-hydroxylase (DBH). As to the kind of experiment: time-dependent DBH inhibitory activity (tyramine conversion followed by oxygen uptake, polarographic electrode). Type of assay: biochemical. As to conditions: Concentration 12.9 mM; pH about 5; about 37° C.; ascorbate; tyramine substrate; 0.989 correlation. The protocol: The compounds of this invention are useful as dopamine beta-hydroxylase inhibitors for the treatment of, for instance, hypertension. The dopamine beta-hydroxylase (DBH) inhibitory properties of the compounds of this invention can readily be determined by standard and well known procedures. […] The test compound is added at the desired concentration, and the system is incubated. At different time intervals, tyramine, a substrate of DBH, is introduced to aliquots of the incubated enzyme solution and DBH activity is measured by the method of S. May, et al, J. Biol. Chem. 256, 2258 (1981), where the enzyme-activated conversion of tyramine is followed by monitoring oxygen uptake by means of a polarographic electrode and an oxygen monitor, to determine the level of DBH activity.

For `COc1ccc(C(=CF)CN)cc1OC` [2-(3,4-dimethoxyphenyl)-3-fluoroallylamine], in the assay on monoamine oxidase, the “active as a monoamine oxidase inhibitor” value is listed as “active as a monoamine oxidase inhibitor”.

`C=C(Br)Cc1ccc(O)cc1` [2-bromo-3-(4-hydroxyphenyl)-1-propene]: the “mechanism-based inhibitors of DBH” value with DBH is “mechanism-based inhibitors of DBH”.

With `C=C(Cl)Cc1ccc(O)cc1` [2-chloro-3-(4-hydroxyphenyl)-1-propene], in the assay on DBH, the “mechanism-based inhibitors of DBH” value was “mechanism-based inhibitors of DBH”.

As for `C=C(F)Cc1ccc(O)cc1` [3-(4-Hydroxyphenyl)-2-Fluoro-1-Propene], the “t 1/2: time required to reach 50% log activity” value in assay [1] is on record as 5 min.
